Test results published in patent US20190085289A1, “COMPOSITIONS AND METHODS FOR PATHOGEN INACTIVATION OF PLATELETS” (Cerus Corporation, priority 2017, published 2019).

Legend:
[1] = Stability and photoconversion of S-59 in PAS/plasma with platelets and bacteria (HPLC); format: physicochemical; conditions: for % S-59 conversion: after UVA
Experimental: Another study evaluated 24 hour stability and photoconversion of amotosalen (S-59) in PAS with plasma and platelets, in the presence of bacteria. Two ABO matched platelet units in 100% plasma were pooled, split into two units and InterSol® PAS added (e.g., 65/35). S-59 was added to the test unit at a concentration of 150 but not initially to the control unit. A log culture of K. pneumoniae (˜8 log cfu/mL) was added to the units at a target of ˜60 CFU/unit and the units were incubated in a platelets shaker at 22° C. for approximately 24 hours. At the end of incubation, S-59 was also added to the control unit at the same concentration and both control and test units were subjected to UVA light. Samples were taken pre- and post-UVA illumination for both units bacterial titer assay and HPLC. Post-illumination both units were subjected to a CAD processing step to remove residual amotosalen and photoproducts and stored on a platelet shaker for 7 days to confirm no growth of bacteria.

K. pneumoniae = assay: Photochemical inactivation of K. pneumoniae in platelets, bacterial titer assay; format: cell-based
Experimental: Another study evaluated 24 hour stability and photoconversion of amotosalen (S-59) in PAS with plasma and platelets, in the presence of bacteria. Two ABO matched platelet units in 100% plasma were pooled, split into two units and InterSol® PAS added (e.g., 65/35). S-59 was added to the test unit at a concentration of 150 but not initially to the control unit. A log culture of K. pneumoniae (˜8 log cfu/mL) was added to the units at a target of ˜60 CFU/unit and the units were incubated in a platelets shaker at 22° C. for approximately 24 hours. At the end of incubation, S-59 was also added to the control unit at the same concentration and both control and test units were subjected to UVA light. Samples were taken pre- and post-UVA illumination for both units bacterial titer assay and HPLC. Post-illumination both units were subjected to a CAD processing step to remove residual amotosalen and photoproducts and stored on a platelet shaker for 7 days to confirm no growth of bacteria. Photochemical inactivation of K. pneumoniae was also measured post-UVA exposure, with the titer (log cfu/mL) results shown in the following table.

[2] = Post-UVA residual S-59 concentration in FCV-spiked platelets (HPLC); format: physicochemical; conditions: for Post-UVA S-59 concentration: UVA ~3 J/cm^2
Experimental: An additional study was performed to evaluate the level of FCV inactivation with decreasing amounts of S-59 after extended incubation (e.g., pre-incubation) in PAS/Plasma. In this study, platelets in PAS/Plasma (65%/35%) were spiked with a stock of FCV at a 1:100 dilution. The FCV-spiked platelets were then split into 16 separate test units. Each unit was dosed with S-59 at approximately 150 μM, 90 μM, 30 μM or 15 μM concentration. Following the addition of S-59 in one of four dosing groups, the platelet units in each dosing group were incubated for 0, 4, 8 or 24 hr prior to illumination. A control sample was taken from each unit for virus titer determination and HPLC analysis of S-59 concentration pre-UVA treatment, followed by UVA light exposure at ˜3 J/cm^2 for photochemical treatment of the test samples. Following UVA treatment, the control and test samples were evaluated for inactivation of FCV using a standard virological plaque assay.
HPLC analysis also was performed to determine the amount (e.g., concentration) of S-59 remaining in samples after UVA illumination and photoconversion (Table 10).

[3] = Stability of S-59 in InterSol PAS under ambient light (HPLC); format: physicochemical; conditions: for S-59 UV peak area (HPLC) / S-59 concentration (HPLC): 230 μM in InterSol PAS, room temp
Experimental: Initial studies evaluated stability of the pathogen inactivation compound amotosalen (S-59) that was formulated in a platelet additive solution (PAS). A 230 μM solution of psoralen compound S-59 (Irsch et al., Transfus Med Hemother, 38: 19-31 (2011)) was prepared in the commercially available PAS solution InterSol® (Fenwal Inc.) and maintained at room temperature under ambient light conditions. HPLC analysis was performed on samples at times listed in Table 1 for both S-59 and photoproducts. […] S-59 data are shown as both concentration (μM), as well as peak area (S-59 UV) for relative comparison to any photoproducts detected with HPLC (Table 1). Peak D and Peak E photoproducts also were observed by 22 hr and 72 hr, respectively, as well as process impurity decomposition product 4′-HMT, with peak area values indicated (Table 1).

[4] = Control unit (S-59 added after ~24 h incubation, then UVA), Replicate 1
[5] = Control unit (S-59 added after ~24 h incubation, then UVA), Replicate 2
[6] = Test unit (S-59 150 present during ~24 h incubation, then UVA), Replicate 1
[7] = Test unit (S-59 150 present during ~24 h incubation, then UVA), Replicate 2

In the case of `Cc1oc2c(C)c3oc(=O)cc(C)c3cc2c1COCCN` [S-59, 3-(2-aminoethoxymethyl)-2,5,9-trimethylfuro[3,2-g]chromen-7-one], the S-59 concentration stability ([1]; 24 hour incubation period, control and test units, with K. pneumoniae) is reported as “stable”, the S-59 concentration ([1]; Control unit (S-59 added at end of ~24 h incubation), platelets + K. pneumoniae, T_24h, Avg.) is reported as 149 µM and the S-59 concentration ([1]; Control unit (S-59 added at end of ~24 h incubation), T_24h, Replicate 1) is reported as 144 µM. For the same molecule, the S-59 concentration ([1]; Control unit (S-59 added at end of ~24 h incubation), T_24h, Replicate 2) was 153 µM, the S-59 concentration ([1]; Control unit (S-59 added at end of ~24 h incubation), T_Post-UVA, Avg.) was 40 µM and the S-59 concentration ([1]; Control unit (S-59 added at end of ~24 h incubation), T_Post-UVA, Replicate 1) was 43 µM. The S-59 concentration ([1]; Control unit (S-59 added at end of ~24 h incubation), T_Post-UVA, Replicate 2) was 37 µM, the “% S-59 conversion” value ([1]; Control unit (S-59 added at end of ~24 h incubation), Avg.) was 27% and the “% S-59 conversion” value ([1]; Control unit (S-59 added at end of ~24 h incubation), Replicate 1) was 30%. The “% S-59 conversion” value ([1]; Control unit (S-59 added at end of ~24 h incubation), Replicate 2) was 24%, the S-59 concentration ([1]; Test unit (S-59 150 added before incubation), PAS/plasma platelets + K. pneumoniae, 22° C., T_0, Avg.) was 152 µM and the S-59 concentration ([1]; Test unit (S-59 added before incubation), platelets + K. pneumoniae, T_0, Replicate 1) was 149 µM. It also gave a S-59 concentration ([1]; Test unit (S-59 added before incubation), platelets + K. pneumoniae, T_0, Replicate 2) of 155 µM, a S-59 concentration ([1]; Test unit (S-59 added before incubation), platelets + K. pneumoniae, T_24h, Avg.) of 153 µM and a S-59 concentration ([1]; Test unit (S-59 added before incubation), T_24h, Replicate 1) of 149 µM. It also gave a S-59 concentration ([1]; Test unit (S-59 added before incubation), T_24h, Replicate 2) of 157 µM, a S-59 concentration ([1]; Test unit (S-59 added before incubation), T_Post-UVA, Avg.) of 26 µM and a S-59 concentration ([1]; Test unit (S-59 added before incubation), T_Post-UVA, Replicate 1) of 27 µM. The S-59 concentration ([1]; Test unit (S-59 added before incubation), T_Post-UVA, Replicate 2) was 24 µM, the “% S-59 conversion” value ([1]; Test unit (S-59 added before incubation), Avg.) was 17% and the “% S-59 conversion” value ([1]; Test unit (S-59 added before incubation), Replicate 1) was 18%. For the same molecule, the “% S-59 conversion” value ([1]; Test unit (S-59 added before incubation), Replicate 2) was 15%, the “K. pneumoniae Log Reduction” value (K. pneumoniae; [4]) was >7.3 Log and the “K. pneumoniae Titer Post-UVA” value (K. pneumoniae; [4]) was <−0.7 log cfu/mL. For the same molecule, the “K. pneumoniae Log Reduction” value (K. pneumoniae; [5]) was >6.3 Log, the “K. pneumoniae Titer Post-UVA” value (K. pneumoniae; [5]) was <−0.7 log cfu/mL and the “K. pneumoniae Log Reduction” value (K. pneumoniae; [6]) was >7.3 Log. The “K. pneumoniae Titer Post-UVA” value (K. pneumoniae; [6]) was <−0.7 log cfu/mL, the “K. pneumoniae Log Reduction” value (K. pneumoniae; [7]) was >6.2 Log and the “K. pneumoniae Titer Post-UVA” value (K. pneumoniae; [7]) was <−0.7 log cfu/mL. The “photochemical inactivation of K. pneumoniae” value (K. pneumoniae; post-UVA, both the control and test units) was “High level inactivation”, the “Post-UVA S-59 concentration” value ([2]; Input S-59 15 μM, pre-incubation 0 hr) was 3 µM and the “Post-UVA S-59 concentration” value ([2]; Input S-59 15 μM, pre-incubation 4 hr) was 2 µM. The “Post-UVA S-59 concentration” value ([2]; Input S-59 15 μM, pre-incubation 8 hr) was 2 µM, the “Post-UVA S-59 concentration” value ([2]; Input S-59 15 μM, pre-incubation 24 hr) was 2 µM and the “Post-UVA S-59 concentration” value ([2]; Input S-59 30 μM, pre-incubation 0 hr) was 5 µM. The “Post-UVA S-59 concentration” value ([2]; Input S-59 30 μM, pre-incubation 4 hr) was 2 µM, the “Post-UVA S-59 concentration” value ([2]; Input S-59 30 μM, pre-incubation 8 hr) was 2 µM and the “Post-UVA S-59 concentration” value ([2]; Input S-59 30 μM, pre-incubation 24 hr) was 3 µM. For the same molecule, the “Post-UVA S-59 concentration” value ([2]; Input S-59 90 μM, pre-incubation 0 hr) was 14 µM, the “Post-UVA S-59 concentration” value ([2]; Input S-59 90 μM, pre-incubation 4 hr) was 10 µM and the “Post-UVA S-59 concentration” value ([2]; Input S-59 90 μM, pre-incubation 8 hr) was 11 µM. The “Post-UVA S-59 concentration” value ([2]; Input S-59 90 μM, pre-incubation 24 hr) was 9 µM, the “Post-UVA S-59 concentration” value ([2]; Input S-59 150 μM, pre-incubation 0 hr) was 29 µM and the “Post-UVA S-59 concentration” value ([2]; Input S-59 150 μM, pre-incubation 4 hr) was 33 µM. The “Post-UVA S-59 concentration” value ([2]; Input S-59 150 μM, pre-incubation 8 hr) was 22 µM, the “Post-UVA S-59 concentration” value ([2]; Input S-59 150 μM, pre-incubation 24 hr) was 19 µM and the “residual S-59 concentration post-treatment” value ([2]; S-59 dosing groups with pre-incubation, levels reached) was “less than 5 μM”. For the same molecule, the “residual S-59 concentration” value ([2]; conditions giving high levels of inactivation (e.g., >4 logs)) was 2 µM, the “S-59 UV peak area (HPLC)” value ([3]; 5 hr) was 3593.309 and the “S-59 concentration (HPLC)” value ([3]; 5 hr) was 230.62 µM. For the same molecule, the “S-59 UV peak area (HPLC)” value ([3]; 6 hr) was 3575.825, the “S-59 concentration (HPLC)” value ([3]; 6 hr) was 229.50 µM and the “S-59 UV peak area (HPLC)” value ([3]; 22 hr) was 3485.467. For the same molecule, the “S-59 concentration (HPLC)” value ([3]; 22 hr) was 223.71 µM, the “S-59 UV peak area (HPLC)” value ([3]; 30 hr) was 3529.854 and the “S-59 concentration (HPLC)” value ([3]; 30 hr) was 226.56 µM. For the same molecule, the “S-59 UV peak area (HPLC)” value ([3]; 47 hr) was 3486.293, the “S-59 concentration (HPLC)” value ([3]; 47 hr) was 223.76 µM and the “S-59 UV peak area (HPLC)” value ([3]; 56 hr) was 3440.455. The “S-59 concentration (HPLC)” value ([3]; 56 hr) was 220.82 µM, the “S-59 UV peak area (HPLC)” value ([3]; 72 hr) was 3534.894 and the “S-59 concentration (HPLC)” value ([3]; 72 hr) was 226.88 µM. For the same molecule, the “S-59 UV peak area (HPLC)” value ([3]; 78 hr) was 3485.093, the “S-59 concentration (HPLC)” value ([3]; 78 hr) was 223.69 µM and the “S-59 UV peak area (HPLC)” value ([3]; T 0) was 3700.439. The “S-59 concentration (HPLC)” value ([3]; T 0) was 237.49 µM and the “loss of S-59” value ([3]; InterSol PAS, at 78 hours) was < 6%.
